In BindingDB's records for doi:10.1021/jm000468c (Abbott Laboratories, 2001):

Test: Inhibitory activity was determined against Neuraminidase A from influenza virus A/Tokyo/3/67

Molecule `CCN(C(=O)N1C[C@@H](C(=O)O)[C@@H](N)[C@@H]1CNC(C)=O)C(C)C` [5-(Acetylamino-methyl)-4-amino-1-(ethyl-isopropyl-carbamoyl)-pyrrolidine-3-carboxylic acid] has an IC50 of 7.5 µM.
`CC(C)N(CCO)C(=O)N1C[C@H](N)[C@H](C(=O)O)C1` [4-Amino-1-[(2-hydroxy-ethyl)-isopropyl-carbamoyl]-pyrrolidine-3-carboxylic acid] gave an IC50 of 21 µM.
In the case of `CCN(CC)C(=O)N1C[C@H](N)[C@H](C(=O)O)C1` [4-Amino-1-diethylcarbamoyl-pyrrolidine-3-carboxylic acid], the IC50 is reported as 25 µM.
`CCN(C(=O)N1C[C@H](N)[C@H](C(=O)O)C1)C(C)C` [4-Amino-1-(ethyl-isopropyl-carbamoyl)-pyrrolidine-3-carboxylic acid] showed an IC50 of 1.6 µM.
`CC(C)(C)OC(=O)N1C[C@@H](N)[C@@H](C(=O)O)C1` [A-87380] gave an IC50 of 50 µM.
In the case of `CC(C)N(CCCC(=O)O)C(=O)N1C[C@H](N)[C@H](C(=O)O)C1` [4-Amino-1-[(3-carboxy-propyl)-isopropyl-carbamoyl]-pyrrolidine-3-carboxylic acid], the IC50 is reported as 19 µM.
For `CC(C)N(CCc1ccccn1)C(=O)N1C[C@H](N)[C@H](C(=O)O)C1` [4-Amino-1-[isopropyl-(2-pyridin-2-yl-ethyl)-carbamoyl]-pyrrolidine-3-carboxylic acid], the IC50 was 1.3 µM.
Work on `CC(C)N(C(=O)N1C[C@H](N)[C@H](C(=O)O)C1)C(C)C` [4-Amino-1-diisopropylcarbamoyl-pyrrolidine-3-carboxylic acid] yielded an IC50 of 4 µM.
Molecule `CCC(CC)C(=O)N1C[C@H](N)[C@H](C(=O)O)C1` [4-Amino-1-(2-ethyl-butyryl)-pyrrolidine-3-carboxylic acid] has an IC50 of 22 µM.
Molecule `CC(C)N(C(=O)N1C[C@H](C(=O)O)[C@H](N=C(N)N)C1)C(C)C` [1-Diisopropylcarbamoyl-4-guanidino-pyrrolidine-3-carboxylic acid] has an IC50 of 13 µM.
With `CC(C)N(CCCO)C(=O)N1C[C@H](N)[C@H](C(=O)O)C1` [4-Amino-1-[(3-hydroxy-propyl)-isopropyl-carbamoyl]-pyrrolidine-3-carboxylic acid] the IC50 was 2.1 µM.
Work on `CC(C)N(CCCN)C(=O)N1C[C@H](N)[C@H](C(=O)O)C1` [4-Amino-1-[(3-amino-propyl)-isopropyl-carbamoyl]-pyrrolidine-3-carboxylic acid] yielded an IC50 of 46 µM.
Molecule `CC(C)N(CCCCCO)C(=O)N1C[C@H](N)[C@H](C(=O)O)C1` [4-Amino-1-[(5-hydroxy-pentyl)-isopropyl-carbamoyl]-pyrrolidine-3-carboxylic acid] has an IC50 of 2 µM.
In the case of `CCCN(CCC)C(=O)N1C[C@H](N)[C@H](C(=O)O)C1` [4-Amino-1-dipropylcarbamoyl-pyrrolidine-3-carboxylic acid], the IC50 is reported as 32 µM.
In the case of `CC(C)N(CCCCC(=O)O)C(=O)N1C[C@H](N)[C@H](C(=O)O)C1` [4-Amino-1-[(4-carboxy-butyl)-isopropyl-carbamoyl]-pyrrolidine-3-carboxylic acid], the IC50 is reported as 1.3 µM.
